Experiments:
[1] = system: A549; experiment: Cytotoxicity against human A549 cells assessed as inhibition of cell growth after 48 hrs by MTT assay; assay type: functional, cell-based; conditions: A549, 48 h
[2] = system: SGC-7901; experiment: Cytotoxicity against human SGC7901 cells assessed as inhibition of cell growth after 48 hrs by MTT assay; assay type: functional, cell-based; conditions: SGC-7901, 48 h
[3] = system: SMMC-7721; experiment: Cytotoxicity against human SMMC7721 cells assessed as inhibition of cell growth after 48 hrs by MTT assay; assay type: functional, cell-based; conditions: SMMC-7721, 48 h
[4] = system: MCF7; experiment: Cytotoxicity against human MCF7 cells assessed as inhibition of cell growth after 48 hrs by MTT assay; assay type: functional, cell-based; conditions: MCF7, 48 h
[5] = system: HeLa; experiment: Cytotoxicity against human HeLa cells assessed as inhibition of cell growth by MTT assay; assay type: functional, cell-based
[6] = system: A549; experiment: Cell cycle arrest in human A549 cells assessed as accumulation at S phase at 0.1 uM after 48 hrs by propidium iodide staining based flow cytometry (reference value: 30.85 %); assay type: functional
[7] = system: A549; experiment: Cell cycle arrest in human A549 cells assessed as accumulation at G2/M phase after 48 hrs by propidium iodide staining based flow cytometry; assay type: functional
[8] = system: A549; experiment: Cell cycle arrest in human A549 cells assessed as accumulation at G2/M phase at 0.5 uM after 48 hrs by propidium iodide staining based flow cytometry (reference value: 14.62%); assay type: functional
[9] = system: A549; experiment: Induction of apoptosis in human A549 cells assessed as early apoptotic cells at 1 uM after 48 hrs by Annexin V-FITC/propidium iodide staining based flow cytometry (reference value: 0.57 %); assay type: functional
[10] = system: A549; experiment: Cell cycle arrest in human A549 cells assessed as accumulation at G0/G1 phase at 0.5 uM after 48 hrs by propidium iodide staining based flow cytometry (reference value: 53.54 %); assay type: functional
[11] = system: A549; experiment: Induction of apoptosis in human A549 cells assessed as viable cells at 0.5 uM after 48 hrs by Annexin V-FITC/propidium iodide staining based flow cytometry (reference value: 96.08 %); assay type: functional; conditions: A549, 48 h, read-out: Activity
[12] = system: A549; experiment: Induction of apoptosis in human A549 cells assessed as early apoptotic cells at 0.5 uM after 48 hrs by Annexin V-FITC/propidium iodide staining based flow cytometry (reference value: 0.57 %); assay type: functional
[13] = system: A549; experiment: Induction of apoptosis in human A549 cells assessed as viable cells at 0.1 uM after 48 hrs by Annexin V-FITC/propidium iodide staining based flow cytometry (reference value: 96.08 %); assay type: functional; conditions: A549, 48 h, read-out: Activity
[14] = system: A549; experiment: Cell cycle arrest in human A549 cells assessed as accumulation at sub-G1 phase at 0.1 uM after 48 hrs by propidium iodide staining based flow cytometry (reference value: 2.78 %); assay type: functional
[15] = system: A549; experiment: Cell cycle arrest in human A549 cells assessed as accumulation at sub-G1 phase at 1 uM after 48 hrs by propidium iodide staining based flow cytometry (reference value: 2.78 %); assay type: functional
[16] = system: A549; experiment: Cell cycle arrest in human A549 cells assessed as accumulation at G0/G1 phase at 0.1 uM after 48 hrs by propidium iodide staining based flow cytometry (reference value: 53.54 %); assay type: functional
[17] = system: A549; experiment: Cell cycle arrest in human A549 cells assessed as accumulation at G2/M phase at 1 uM after 48 hrs by propidium iodide staining based flow cytometry (reference value: 14.62%); assay type: functional
[18] = system: A549; experiment: Cell cycle arrest in human A549 cells assessed as accumulation at sub-G1 phase after 48 hrs by propidium iodide staining based flow cytometry; assay type: functional
[19] = system: A549; experiment: Induction of apoptosis in human A549 cells assessed as late apoptotic cells at 0.1 uM after 48 hrs by Annexin V-FITC/propidium iodide staining based flow cytometry (reference value: 2.70 %); assay type: functional
[20] = system: A549; experiment: Induction of apoptosis in human A549 cells assessed as late apoptotic cells at 0.5 uM after 48 hrs by Annexin V-FITC/propidium iodide staining based flow cytometry (reference value: 2.70 %); assay type: functional
[21] = system: A549; experiment: Induction of apoptosis in human A549 cells assessed as late apoptotic cells at 1 uM after 48 hrs by Annexin V-FITC/propidium iodide staining based flow cytometry (reference value: 2.70 %); assay type: functional
[22] = system: A549; experiment: Induction of apoptosis in human A549 cells after 48 hrs by Annexin V-FITC/propidium iodide staining based flow cytometry; assay type: functional, cell-based
[23] = system: A549; experiment: Induction of apoptosis in human A549 cells assessed as viable cells at 1 uM after 48 hrs by Annexin V-FITC/propidium iodide staining based flow cytometry (reference value: 96.08 %); assay type: functional; conditions: A549, 48 h, read-out: Activity
[24] = system: A549; experiment: Cell cycle arrest in human A549 cells assessed as accumulation at G2/M phase at 0.1 uM after 48 hrs by propidium iodide staining based flow cytometry (reference value: 14.62%); assay type: functional
[25] = system: A549; experiment: Induction of apoptosis in human A549 cells assessed as early apoptotic cells at 0.1 uM after 48 hrs by Annexin V-FITC/propidium iodide staining based flow cytometry (reference value: 0.57 %); assay type: functional
[26] = system: A549; experiment: Cell cycle arrest in human A549 cells assessed as accumulation at S phase at 1 uM after 48 hrs by propidium iodide staining based flow cytometry (reference value: 30.85 %); assay type: functional
[27] = system: A549; experiment: Cell cycle arrest in human A549 cells assessed as accumulation at sub-G1 phase at 0.5 uM after 48 hrs by propidium iodide staining based flow cytometry (reference value: 2.78 %); assay type: functional
[28] = system: A549; experiment: Cell cycle arrest in human A549 cells assessed as accumulation at S phase at 0.5 uM after 48 hrs by propidium iodide staining based flow cytometry (reference value: 30.85 %); assay type: functional
[29] = system: A549; experiment: Cell cycle arrest in human A549 cells assessed as accumulation at G0/G1 phase at 1 uM after 48 hrs by propidium iodide staining based flow cytometry (reference value: 53.54 %); assay type: functional

Compound: COc1ccc2c3ccnc(C)c3n(CCCCCBr)c2c1
- IC50 [1]: 4.8 µM
- IC50 [2]: 9.34 µM
- IC50 [3]: 6.49 µM
- IC50 [4]: 0.76 µM

Compound: COc1ccc2c3ccnc(C)c3n(CCCc3ccccc3)c2c1
- IC50 [5]: 24 µM

Compound: COc1ccc2c3ccnc(C)c3n(Cc3ccccc3C)c2c1
- IC50 [1]: 8.34 µM
- IC50 [2]: 17.2 µM
- IC50 [3]: 39.5 µM
- IC50 [4]: > 50 µM

Compound: COc1ccc2c3ccnc(C)c3n(C(C)=O)c2c1
- IC50 [1]: 1.27 µM
- IC50 [2]: 6.39 µM
- IC50 [3]: > 50 µM
- IC50 [4]: > 50 µM

Compound: COc1ccc2c3ccnc(C)c3n(CCCCCCBr)c2c1
- IC50 [1]: 0.87 µM
- IC50 [2]: 6.94 µM
- IC50 [3]: 3.79 µM
- IC50 [4]: 0.45 µM

Compound: CCCCCCCCn1c2cc(OC)ccc2c2ccnc(C)c21
- IC50 [1]: 4.77 µM
- IC50 [2]: 6.68 µM
- IC50 [3]: 6.95 µM
- IC50 [4]: > 50 µM

Compound: COc1ccc2c3ccnc(C)c3n(CCCCCl)c2c1
- IC50 [1]: 8.73 µM
- IC50 [2]: 7.21 µM
- IC50 [3]: 17.9 µM
- IC50 [4]: 2.94 µM

Compound: CCn1c2cc(OC)ccc2c2ccnc(C)c21
- IC50 [1]: 26.4 µM
- IC50 [2]: 29.6 µM
- IC50 [3]: 24 µM
- IC50 [4]: > 50 µM

Compound: COc1ccc2c3ccnc(C)c3n(S(=O)(=O)c3ccc(C)cc3)c2c1
- Activity [6]: 30.27%
- Activity [7]: Dose-dependent effect
- Activity [8]: 31.09%
- Activity [9]: 17.59%
- Activity [10]: 36.99%
- viability at 0.5 µM [11]: 45%
- Activity [12]: 11.5%
- viability at 0.1 µM [13]: 73.1%
- Activity [14]: 8.63%
- IC50 [1]: 0.48 µM
- Activity [15]: 24.88%
- Activity [16]: 53.31%
- Activity [17]: 36.64%
- Activity [18]: Dose-dependent effect
- Activity [19]: 18.76%
- Activity [20]: 42.79%
- Activity [21]: 54.11%
- Activity [22]: Dose-dependent effect
- IC50 [2]: 1.56 µM
- viability at 1 µM [23]: 28.2%
- Activity [24]: 16.42%
- Activity [25]: 2.68%
- Activity [26]: 25.9%
- IC50 [3]: > 50 µM
- IC50 [4]: > 50 µM
- Activity [27]: 21.15%
- Activity [28]: 31.93%
- Activity [29]: 36.46%

Compound: COc1ccc2c3ccnc(C)c3n(Cc3ccccc3F)c2c1
- IC50 [1]: 5.67 µM
- IC50 [2]: 43.6 µM
- IC50 [3]: > 50 µM
- IC50 [4]: > 50 µM

Compound: COc1ccc2c3ccnc(C)c3n(CCCCBr)c2c1
- IC50 [1]: 12.2 µM
- IC50 [2]: 10.6 µM
- IC50 [3]: 8.34 µM
- IC50 [4]: 0.85 µM

Compound: CCCCCCCCCCCC(=O)n1c2cc(OC)ccc2c2ccnc(C)c21
- IC50 [1]: 14.6 µM
- IC50 [2]: 8.76 µM
- IC50 [3]: 49.1 µM
- IC50 [4]: > 50 µM

Compound: COc1ccc2c3ccnc(C)c3n(C(=O)c3ccc(C)cc3)c2c1
- IC50 [1]: 1.33 µM
- IC50 [2]: 2.88 µM
- IC50 [3]: > 50 µM
- IC50 [4]: > 50 µM

Compound: COc1ccc2c3ccnc(C)c3n(Cc3ccc(F)cc3)c2c1
- IC50 [1]: 8.73 µM
- IC50 [2]: 7.21 µM
- IC50 [3]: > 50 µM
- IC50 [4]: > 50 µM

Reference: ChEMBL document CHEMBL4425146, “Synthesis and biological evaluation of N(9)-substituted harmine derivatives as potential anticancer agents” (Bioorg Med Chem Lett, 2016)
